Assay results reported in patent publication US20240002405A1, “ANTIMICROBIAL COMPOUNDS, SYNTHESIS METHODS, AND USES THEREOF” (Ankh Life Sciences Limited, priority 2022, published 2024).
Converted amounts (≈) assume the structure as drawn. “And” between values parts separate entries of the source, which are not always exact repeats. Equal entries are not always repeated. Structures can show the parent of a compound that is named as a salt. Where two headings read alike, the source gives them in different places.

Key:
MRSA (ATCC 43300) = test: Minimum bactericidal concentration (MBC) assay, MRSA; format: cell-based; settings: Staphylococcus aureus
Experimental: (§1) (f) Determination of MBC: MBC was determined by sampling all the macroscopically clear wells. Before sampling, the wells were gently mixed by flushing them with a pipette, and a 5 μL was removed and placed on an agar plate suitable for the growth of the microbe being tested. The agar plate was divided into three parts to test three trials of a single concentration. The sample was allowed to be absorbed into the agar for ˜30 minutes. The plates were then incubated for 24 hours at 37° C. After incubation, the plates were examined to determine the compound concentration at which 99.9% killing was achieved.

S. aureus (ATCC 29213) [1] = test: Broth microdilution MIC assay, S. aureus; settings: for MIC: Staphylococcus aureus; for MIC (bacterial growth inhibition) / concentration at which activity is shown: S. aureus
Experimental: (§2) The concentration of compound required to visibly stop the growth of bacteria is known as minimum inhibitory concentration (MIC). Different concentrations of the compounds are tested for the exact same number of bacteria, and the growth is monitored with time.
(§3) Bacterial strains were purchased from the American Type Culture Collection (ATCC) for the studies.
(§4) The MIC assay procedure follows the guidelines set by the Clinical Laboratory Sciences Institute (CLSI).
(§5) To do this, bacteria were transferred from pure agar culture, aseptically transferred in 5 mL of Cation-Adjusted Mueller-Hinton Broth (CAMHB). The broth was incubated overnight at 35° C. to stationary phase to achieve a turbidity suspension. A spectrophotometer (SpectraMax ID5) was used to measure the turbidity (optical density—OD at 625 nm). The inoculum was prepared by adjusting the turbidity of overnight culture to 0.5 McFarland, which is equal to the defined number of bacteria 1×10^8 CFU/ml.
(§6) (b) Compound Dilution: All compounds used in the study were dissolved in sterile ultra-pure DMSO (VWR International, PA, USA) and maintained at −80° C. Stock solution of the compound was freshly prepared the day of use or is prepared from a frozen stock solution stored at −80° C. […] The compound solution was prepared at a desired concentration in DMSO, and 1/10 dilution was performed in a sterile CAMHB medium. This 10-fold dilution of stock solution was used for a 2-fold serial dilution in a 96-well plate to observe an inhibitory effect of the compound on bacterial growth. 100 μL of diluted drug solution was transferred to a first column of the 96-well plate. 50 μL of sterile CAMHB was transferred to each well from well 2 to well 12. Next, 50 μL was removed from well 1 and added to well 2. The contents from well 2 were mixed by pipetting up and down. Next, 50 µL were removed from well 2 and added to well 3. This process was continued till well 11 is reached. 50 μL was discarded from the well 11. Each compound concentration was tested in triplicate.
(§7) (c) Inoculation of 96-well plate: The same number of bacteria (1×10^5 CFU/mL) were prepared after 150-fold dilution of 0.5 McFarland inoculum and used to add in the wells of different drug concentrations. 50 μL of working inoculum was carefully added to each well, except the sterility well 12. Mixing is performed by gently flushing the inoculum in and out of the pipette tip four or five times, avoiding splashing and bubble formation.
(§8) (d) Incubation: Plates were incubated at 35° C. for 24 hours without shaking or agitation.
(§9) (e) Determination of MIC: After 18-24 hours of incubation, the plates were read for MIC. SpectraMax iD5 microplate reader was used to measure turbidity at different time points. Turbidity (OD) increases as the bacteria grow over time.

S. aureus (ATCC 29213) [2] = test: Minimum bactericidal concentration (MBC) assay, S. aureus; format: cell-based; settings: Staphylococcus aureus
Experimental: as §1

E. coli (ATCC 25922) = test: Broth microdilution MIC assay, E. coli; settings: for MIC: Escherichia coli
Experimental: as §2, §3, §4, §5, §6, §7, §8, §9

[3] = system: MRSA: S. aureus resistant to methicillin and oxacillin (ATCC 43300); test: Broth microdilution MIC assay, MRSA; settings: for MIC: Staphylococcus aureus, ATCC43300|MRSA, read-out: MIC (bacterial growth inhibition)
Experimental: as §2, §3, §4, §5, §6, §7, §8, §9

[4] = system: Candida albicans (ATCC 18804); test: Antifungal broth microdilution MIC assay; format: cell-based; settings: for MIC: Candida albicans, ATCC18804, C. albicans, read-out: MIC (antifungal growth inhibition)
Experimental: Synthesized compounds were tested for antifungal activity towards the fungus strain, Candida albicans. […] Different concentrations of the compounds were tested for the exact same number of fungi, and the growth is monitored with time. MIC was determined by using the broth microdilution assay. Fungus strain, C. albicans was purchased from ATCC (ID: 18804) for the studies. […] This solution was used to make a working solution by preparing a 1:50 dilution, followed by a 1:20 dilution, with RPMI 1640 medium to obtain 2× test inoculum. The 2× inoculum is diluted 1:1 to achieve the final inoculum size (0.5×10^3 to 2.5×10^3 cells per mL). RPMI 1640 medium was used with L-glutamine and phenol red as a pH indicator but without bicarbonate and a glucose concentration of 0.2%. […] All plates were then read visually under normal laboratory lighting using a mirror viewer. Wells were scored for the growth compared to that of the drug free control well. Plates were read at 530 nm with subtraction of the blank from the reading of each well. Turbidity (OD) increases as the fungus grows over time.

Solubility in DMSO = format: physicochemical
[5] = system: gram positive and negative bacteria; test: Antibacterial testing against gram positive and negative bacteria; format: cell-based
Experimental: In addition to the harmaline dimers compounds, other bicyclic indole compounds (203, 233, 476/6 and 504/6,) were also tested against gram positive and negative bacteria. Particularly, the indole ethyl urea molecules 203, 233 and the tryptamide dimer molecules 476/6, 504/6, as shown below, were tested.

E. faecalis (ATCC 29212) [6] = test: Minimum bactericidal concentration (MBC) assay, E. faecalis; format: cell-based, Enterococcus faecalis
Experimental: as §1

[7] = system: VREF: E. faecalis resistant to vancomycin (ATCC 51299); test: Broth microdilution MIC assay, VREF; settings: Enterococcus faecalis, ATCC51299, read-out: MIC (bacterial growth inhibition)
Experimental: as §2, §3, §4, §5, §6, §7, §8, §9

[8] = system: engineered Salmonella typhimurium strain (umuC, β-galactosidase)
Excerpt: The EBPI UMU-ChromoTest™ assay is used for the detection and quantification of genotoxicity of compounds and is based on the International Organization for Standardization protocol ISO 13829. The UMU-ChromoTest™ assay utilizes a native bacterial mechanism for the detection of compound genotoxicity. The bacteria used for the assay is an engineered Salmonella typhimurium strain developed to include a gene coding for the β-galactosidase (β-gal) enzyme tethered to the umuC, a damage response gene. DNA damage activates the SOS system to transcribe β-gal proportional to the level of SOS induction. The UMU-ChromoTest™ bacterial strain has modifications to increase sensitivity to genotoxins with (a) increased sensitivity for even limited damage, (b) modified outer membrane of the cell to increase permeability to exogenous materials, and (c) production of a color change on addition to chromogenic substrate (ONPG), which is a quantitative measure of genotoxic damage to bacterial DNA.
Rehydration of Dried Bacteria and Culture Growth: The bacteria were rehydrated and incubated at 37° C. for 16-18 hours. OD600 of the overnight culture should be 0.5 or at least above 0.1 at 600 nm.
Sample Preparation and Plate Setup: The dimer compounds were dissolved in DMSO. All dilution and controls were made in the solvent of 10% DMSO in sterile 0.85% saline. The pH of the compounds was adjusted to 7.0±0.2 before incubation with bacteria to facilitate bacterial growth and prevent degradation of ONPG later in the assay. The solutions of hydrochloric acid and sodium hydroxide were used to adjust pH with minimal addition volumes to prevent excessive sample dilution. Six samples were run at 4 dilutions at a time.
Preliminary Dilution of Bacteria: The overnight bacterial culture was diluted to 50% by performing a reinoculation with 5 mL of overnight growth and 5 mL of fresh Growth media. The reinoculated bacteria was inoculated for 1.5 hours at 37° C. The OD600 should be approximately 80% of the reading from overnight growth or slightly higher.
Preparation of Plate A: Distilled water (180 μL) was added to all wells, except for rows A to F, columns 1 to 3 and row H, columns 1 to 6. Rows A to F are used for 6 compounds per plate. The test compounds (360 μL) were added to the first three wells (three replicates) of the same microplate, such that wells 1-3 were a triplicate set of the highest concertation of test compound (360 μL). Wells 4-12 each contained 180 μL of distilled water. For dilution, half of the contents (180 μL) from wells 1-3 was transferred to wells 4-6 which makes a second triplicate set. For a third dilution, half of the contents from wells 4-6 were transferred to 7-9, and for the fourth triplicate set, half of the contents from wells 7-9 was transferred to 10-12. […]

E. faecalis (ATCC 29212) [9] = test: Broth microdilution MIC assay, E. faecalis; settings: Enterococcus faecalis, ATCC29212, read-out: MIC (bacterial growth inhibition)
Experimental: as §2, §3, §4, §5, §6, §7, §8, §9

VREF (ATCC 51299) = test: Minimum bactericidal concentration (MBC) assay, VREF; format: cell-based, Enterococcus faecalis; settings: Enterococcus faecalis, ATCC51299, read-out: MBC (bactericidal activity)
Experimental: as §1

[10] = ATCC29213, 24 h, S. aureus, read-out: MBC (kills bacteria)
[11] = ATCC29213, read-out: MIC (bacterial growth inhibition), S. aureus, time not given
[12] = ATCC25922, read-out: MIC (bacterial growth inhibition), E. coli
[13] = ATCC29213, read-out: MIC (bacterial growth inhibition)

Work on `COc1ccc2c3c([nH]c2c1)C(CC(CC1=NCCc2c1[nH]c1cc(OC)ccc21)c1ccncc1)=NCC3` [GK517.4] yielded an MBC (MRSA (ATCC 43300); MRSA, read-out: MBC) of over 129 µg/mL, an MBC (MRSA (ATCC 43300); MRSA, read-out: MRSA-MBC) of over 250 µM and an MIC (S. aureus (ATCC 29213) [1]; ATCC29213, 24 h, read-out: MIC (bacterial growth inhibition), S. aureus, up to 24 hours) of 64.7 µg/mL (≈ 125 µM). The MBC (S. aureus (ATCC 29213) [2]; [10]) was 64.7 µg/mL, the “MIC (bacterial growth inhibition)” value (E. coli (ATCC 25922); E. coli) was “no activity was observed” and the MIC ([3]; 24 h) was 64.7 µg/mL (≈ 125 µM).

`COc1ccc2c3c([nH]c2c1)C(CC(CC1=NCCc2c1[nH]c1cc(OC)ccc21)c1cncs1)=NCC3` [GK524] gave an MBC (MRSA (ATCC 43300); MRSA, read-out: MBC) of 32.7 µg/mL, an MBC (MRSA (ATCC 43300); MRSA, read-out: MRSA-MBC) of 62.5 µM and an MIC (S. aureus (ATCC 29213) [1]; [11]) of 32.7 µg/mL (≈ 62.5 µM). The “higher efficacy than harmaline” value (S. aureus (ATCC 29213) [1]; antibacterial efficacy versus harmaline) was about 15 fold, the “higher antibacterial activity than harmaline dimer without a substitution (GZ440/6)” value (S. aureus (ATCC 29213) [1]; versus GZ440/6) was 1.75 fold and the MIC ([4]; after 24 hours of incubation) was 12.2 µg/mL (≈ 23.4 µM). The MIC ([4]; after 48 hours of incubation) was 25 µg/mL (≈ 47.7 µM), the “solubility in DMSO (time to dissolve)” value (Solubility in DMSO) was “instantly” and the bacteriostatic/bactericidal activity [5] was “show bacteriostatic and bactericidal activity”. The MBC (S. aureus (ATCC 29213) [2]; [10]) was 65.5 µg/mL, the MBC (S. aureus (ATCC 29213) [2]; ATCC29213, S. aureus, read-out: MBC (bactericidal activity)) was 125 µM and the “MIC (bacterial growth inhibition)” value (E. coli (ATCC 25922); E. coli) was “No bacteriostatic or bactericidal activities were observed”. For the same compound, the MIC [3] was 16.4 µg/mL (≈ 31.2 µM).

For `COc1ccc2c3c([nH]c2c1)C(/C=C\c1cc(Br)ccc1/N=C/c1cc(Br)ccc1N)=NCC3` [GK578, 4-bromo-2-((E)-((4-bromo-2-((Z)-2-(7-methoxy-4,9-dihydro-3H-pyrido[3,4-b]indol-1-yl)vinyl)phenyl)imino)methyl)aniline], the “concentration showing significant reduction in growth” value (E. coli (ATCC 25922); E. coli) was 3.12 µg/mL and the inhibition in growth (E. coli (ATCC 25922); incubated with E. coli for 10-75 hrs) was 50%.

For `COc1ccc2c3c([nH]c2c1)C(CC(CC1=NCCc2c1[nH]c1cc(OC)ccc21)c1c[nH]c2ccc(C#N)cc12)=NCC3` [GK580, 3-(1,3-bis(7-methoxy-4,9-dihydro-3H-pyrido[3,4-b]indol-1-yl)propan-2-yl)-1H-indole-5-carbonitrile], the “MBC (kills bacteria)” value (E. faecalis (ATCC 29212) [6]) was over 88 µg/mL, the MIC [7] was over 88 µg/mL and the MBC (MRSA (ATCC 43300); MRSA, read-out: MBC) was 7 µg/mL. The “genotoxic concentration (no genotoxicity up to)” value ([8]; S9 not stated) was over 30 µg/mL, the “MIC (bacterial growth inhibition)” value (S. aureus (ATCC 29213) [1]; time not given) was 3.5 µg/mL (≈ 6.03 µM) and the MIC (S. aureus (ATCC 29213) [1]; [11]) was 5.5 µg/mL (≈ 9.47 µM). The MIC ([4]; after 24 hours of incubation) was 12.2 µg/mL (≈ 21.1 µM), the MIC ([4]; after 48 hours of incubation) was 12.2 µg/mL (≈ 21.1 µM) and the “concentration inhibiting fungal growth” value ([4]; time not stated) was 12.5 µg/mL. It also gave an MBC (S. aureus (ATCC 29213) [2]; [10]) of 11 µg/mL, an MIC (E. coli (ATCC 25922); [12]) of 12.5 µg/mL (≈ 21.5 µM) and an MIC [3] of 3.5 µg/mL (≈ 6.03 µM). For the same compound, the MIC (E. faecalis (ATCC 29212) [9]) was 44 µg/mL (≈ 75.8 µM).

With `COc1ccc2c3c([nH]c2c1)C(CC(CC1=NCCc2c1[nH]c1cc(OC)ccc21)c1ccc(C(F)(F)F)nc1)=NCC3` [GK585] the MBC (MRSA (ATCC 43300); MRSA, read-out: MBC) was over 146 µg/mL, the MBC (MRSA (ATCC 43300); MRSA, read-out: MRSA-MBC) was over 250 µM and the genotoxicity ([8]; at 12.5 and 25 μM) was “no genotoxicity”. For the same compound, the genotoxicity ([8]; at 50 and 100 μM) was “interfered with testing protocols”, the MIC (S. aureus (ATCC 29213) [1]; [11]) was 73.2 µg/mL (≈ 125 µM) and the MBC (S. aureus (ATCC 29213) [2]; [10]) was over 146 µg/mL. The “MIC (bacterial growth inhibition)” value (E. coli (ATCC 25922); E. coli) was “No bacteriostatic or bactericidal activities were observed” and the MIC [3] was 73.2 µg/mL (≈ 125 µM).

With `COc1ccc2c3c([nH]c2c1)C(CC(CC1=NCCc2c1[nH]c1cc(OC)ccc21)c1c[nH]c2ccc(C(=O)O)cc12)=NCC3` [GK599.HCl] the “concentration at which activity is shown” value (S. aureus (ATCC 29213) [1]) was 12.5 µg/mL, the “concentration at which activity is shown” value (E. coli (ATCC 25922); E. coli) was 50 µg/mL and the “concentration at which activity is shown” value ([3]; MRSA) was 12.5 µg/mL.

For `COc1ccc2c3c([nH]c2c1)C(CC(CC1=NCCc2c1[nH]c1cc(OC)ccc21)c1c[nH]c2ccc(C(=O)O)cc12)=NCC3` [GK599], the “concentration at which activity is shown” value (S. aureus (ATCC 29213) [1]) was 6.25 µg/mL and the “concentration at which activity is shown” value (E. coli (ATCC 25922); E. coli) was 100 µg/mL.

In the case of `COc1ccc2c3c([nH]c2c1)C(CC(CC1=NCCc2c1[nH]c1cc(OC)ccc21)c1c[nH]c2cccc([N+](=O)[O-])c12)=NCC3` [GK600], the “MIC (bacterial growth inhibition)” value (S. aureus (ATCC 29213) [1]; time not given) is reported as 3.5 µg/mL (≈ 5.83 µM), the MIC (S. aureus (ATCC 29213) [1]; [11]) is reported as 3.1 µg/mL (≈ 5.16 µM) and the “MIC (bacterial growth inhibition)” value (E. coli (ATCC 25922); E. coli) is reported as 6.25 µg/mL (≈ 10.4 µM). It also gave an MIC (E. coli (ATCC 25922); [12]) of 12.5 µg/mL (≈ 20.8 µM) and an MIC [3] of 2.75 µg/mL (≈ 4.58 µM).

For `COc1ccc2c3c([nH]c2c1)C(C)=NCC3` [Harmaline, reference compound], the MIC (S. aureus (ATCC 29213) [1]; [13]) was 707 µg/mL and 3300 µM and the MIC (E. coli (ATCC 25922); ATCC25922, read-out: MIC (bacterial growth inhibition)) was 707 µg/mL and 3300 µM.

For `CN[C@H](CC(C)C)C(=O)N[C@H]1C(=O)N[C@@H](CC(N)=O)C(=O)N[C@H]2C(=O)N[C@H]3C(=O)N[C@H](C(=O)N[C@H](C(=O)O)c4cc(O)cc(O)c4-c4cc3ccc4O)[C@H](O)c3ccc(c(Cl)c3)Oc3cc2cc(c3O[C@@H]2O[C@H](CO)[C@@H](O)[C@H](O)[C@H]2O[C@H]2C[C@](C)(N)[C@H](O)[C@H](C)O2)Oc2ccc(cc2Cl)[C@H]1O` [Vancomycin, reference compound], the “MBC (kills bacteria)” value (E. faecalis (ATCC 29212) [6]) was 6.25 µg/mL (≈ 4.31 µM), the MBC (VREF (ATCC 51299)) was over 100 µg/mL and the MIC [7] was 25 µg/mL (≈ 17.3 µM). The MBC (MRSA (ATCC 43300)) was 1.56 µg/mL, the MIC (S. aureus (ATCC 29213) [1]; [13]) was 1.56 µg/mL (≈ 1.08 µM) and the MBC (S. aureus (ATCC 29213) [2]; ATCC29213, 24 h, read-out: MBC (kills bacteria)) was 1.56 µg/mL. The MIC [3] was 1.56 µg/mL (≈ 1.08 µM) and the MIC (E. faecalis (ATCC 29212) [9]) was 3.12 µg/mL (≈ 2.15 µM).
